Results as given in patent US7851629B2, “Disubstituted phenylpiperidines as modulators of dopamine and serotonin neurotransmission” (NSAB, Filial af Neurosearch Sweden AB, Sverige, priority 2004, dated 2010).
Where “and” joins values, the source holds several entries; their conditions need not be identical. Equal values may be shown once. Where a name gives a salt, the structure may show the parent alone.

Experiments:
[1] = tested on: extracellular 5-HT, dopamine and norepinephrine in the cortex; assay: Microdialysis in awake and freely moving rats, cortex monoamines; assay type: in vivo, rat; settings: for levels of dopamine in the cortex / levels of norepinephrine in the cortex / 5-HT in the cortex: 50 μmol/kg s.c., pf. cortex; for levels of dopamine in the cortex / levels of norepinephrine in the cortex: FIG. 2-4; for 5-HT in the cortex: FIGS. 2-4
Description: The microdialysis technique (Ungerstedt, Herrera-Marschitz et al. 1982) is a well established technique for measuring extracellular levels of neurotransmitters (Ungerstedt 1991). The microdialysis technique was used to measure the effect of drugs upon the monoamine transmitters. The appended graphs (FIGS. 1-4) show the effects of one established antidepressant (citalopram) upon 5-HT in the cortex, as well as for three compounds claimed in the present invention (Examples 3, 5, and 6).
Male Sprague-Dawley rats weighing 220-320 g were used throughout the experiments. Before the experiment the animals were group housed, five animals in each cage, with free access to water and food. The animals were housed at least one week after arrival prior to surgery and use in the experiments. Each rat was used only once for microdialysis.
We use a modified version (Waters, Lofberg et al. 1994) of the I-shaped probe (Santiago and Westerink 1990). The dialysis membrane we use is the AN69 polyacrylonitrile/sodium methalylsulfonate copolymer (HOSPITAL; o.d./i.d. 310/220 μm: Gambro, Lund, Sweden). In the dorsal striatum we use probes with an exposed length of 3 mm of dialysis membrane and in the prefrontal cortex the corresponding length is 2.5 mm. The rats were operated under isoflurane inhalation anesthesia while mounted into a Kopf stereotaxic instrument. Coordinates were calculated relative to bregma; dorsal striatum AP+1, ML±2.6, DV−6.3; Pf cortex, AP+3.2, 8° ML±1.2, DV−4.0 according to (Paxinos and Watson 1986). The dialysis probe was positioned in a burr hole under stereotaxic guidance and cemented with phosphatine dental cement.
The rats were housed individually in cages for 48 h before the dialysis experiments, allowing them to recover from surgery and minimizing the risk of drug interactions with the anaesthetic during the following experiments. During this period the rats had free access to food and water. On the day of experiment the rats were connected to a micro perfusion pump via a swivel and were replaced in the cage where they could move freely within its confinements. The perfusion medium was a Ringer's solution containing in mmol/l: NaCl; 140, CaCl2; 1.2, KCl; 3.0, MgCl2; 1.0 and ascorbic acid; 0.04 according to (Moghaddam and Bunney 1989). The pump was set to a perfusion speed of 2 μl/min and 40 μl samples were collected every 20 min.
30 μl of each sample was injected into the chromatograph. On a 10-port injector (Valco CLOW), with two sample loops mounted in series (2 μl and 20 μl), each brain dialysate sample is loaded in both loops simultaneously. When the valve is switched to inject the main part of the 20 μl sample is introduced into a reverse-phase ion-pairing system for dopamine (DA), norepinephrine (NA), normetanephrine (NM), 3-methoxytyramine(3-MT) and serotonin (5-hydroxytryptamine, 5-HT) determination (large loop), while a small fraction (2 μl, from the small loop) is introduced on a reverse-phase column for the chromatography of the acidic monoamine metabolites 3,4-di-hydroxyphenylacetic acid (DOPAC), homovanillic acid (HVA) and 5-hydroxyindoleacetic acid (5-HIAA). The currents generated by the two EC detectors are converted to digital data and evaluated using Chromelion software (Dionex, Sunnyvale, Calif.) on a PC. The method sample turn over time was 4.5 min and two parallel experiments are normally analysed simultaneously on the system. After the experiment the rats were uncoupled from the perfusion pump and decapitated. Their brains were rapidly taken out and fixed in Neo-fix solution (Kebo-lab, Sweden) for subsequent inspection of probe localisation. The Animal Ethics Committee in Göteborg, Sweden approved the procedures applied in these experiments. • Moghaddam, B. and B. S. Bunney (1989). “Ionic Composition of Microdialysis Perfusing Solution Alters the Pharmacological Responsiveness and Basal Outflow of Striatal Dopamine.” J. Neurochem. 53: 652-654. • Paxinos, G. and C. Watson (1986). […]

MK-801 pre-treated rats = assay: Locomotor activity in MK-801 pre-treated rats; settings: ± SEM; for Locomotor activity, MK + example: MK-801 0.7 mg/kg i.p. 90 minutes before test compound 33 μmol/kg, recorded 30-60 minutes after administration
drug-naive rats = assay: Locomotor activity in drug-naive rats; settings: recorded for 60 minutes, ± SEM
schizophrenic patients = settings: selective sigma receptor antagonists; Borison et al 1991, Gewirtz et al 1994; cited from earlier work

SMILES: CCCN1CCC(c2cccc(Cl)c2Cl)CC1 [Example 6, 4-(2,3-dichlorophenyl)-1-propylpiperidine]
- levels of dopamine in the cortex [1]: elevate
- levels of norepinephrine in the cortex [1]: elevate
- 5-HT in the cortex [1]: 5-HT increase in the cortex

SMILES: CCN1CCC(c2cccc(C(F)(F)F)c2F)CC1 (as salt: hydrochloric acid salt) [Example 3, 4-[2-fluoro-3-(trifluoromethyl)phenyl]-1-ethylpiperidine]
- melting point: 235 to 237 °C

SMILES: CCN1CCC(c2cccc(C#N)c2F)CC1 (as salt: oxalic acid salt)
- melting point: 156 to 158 °C

SMILES: C[C@]12N[C@H](Cc3ccccc31)c1ccccc12 [MK-801, reference compound]
- Locomotor activity, MK-801 (MK-801 pre-treated rats; MK-801 0.7 mg/kg i.p. alone, recorded 30-60 minutes, 0.7 mg/kg): 55810 ± 16124 counts/30 min and 30462 ± 6937 counts/30 min

SMILES: CCCN1CCC(c2cccc(Cl)c2Cl)CC1 (as salt: hydrochloric acid salt) [Example 6, 4-(2,3-dichlorophenyl)-1-propylpiperidine]
- melting point: 265 to 267 °C

SMILES: CN1CCN2c3ncccc3Cc3ccccc3C2C1 (stereo not shown) [mirtazapine, reference compound]
- extracellular dopamine in the cortex ([1]; 10 mg/kg s.c., cortex, FIG. 5): increase
- extracellular norepinephrine in the cortex ([1]; 10 mg/kg s.c., cortex, FIG. 5): increase

SMILES: CCCN1CCC(c2cccc(Cl)c2Cl)CC1 [drawing 28]
- Locomotor activity, MK + example (MK-801 pre-treated rats): 12943 ± 3226 (P = 0.06) counts/30 min

SMILES: CN1CCC(c2cccc(C(F)(F)F)c2F)CC1 (as salt: hydrochloric acid salt)
- melting point: 260 to 261 °C

SMILES: CCCN1CCC(c2cccc(Cl)c2Cl)CC1 [drawing 18]
- Locomotor activity (drug-naive rats; 11 μmol/kg): 7739 ± 1903 counts/60 min
- Locomotor activity (drug-naive rats; 33 μmol/kg): 7053 ± 659 counts/60 min
- Locomotor activity (drug-naive rats; 100 μmol/kg): 4272 ± 1831 counts/60 min

SMILES: CCCN1CCC(c2cccc(F)c2F)CC1 (as salt: hydrochloric acid salt) [Example 5, 4-(2,3-difluorophenyl)-1-propylpiperidine]
- melting point: 237 to 238 °C

SMILES: CCCN1CCC(c2cccc(F)c2F)CC1 [Example 5, 4-(2,3-difluorophenyl)-1-propylpiperidine]
- levels of dopamine in the cortex [1]: elevate
- levels of norepinephrine in the cortex [1]: elevate
- 5-HT in the cortex [1]: 5-HT increase in the cortex

SMILES: OC(CCCN1CCN(c2ncc(F)cn2)CC1)c1ccc(F)cc1 (stereo not shown) [BMY14802]
- outcome of clinical studies in schizophrenic patients (schizophrenic patients): failed

SMILES: CCN1CCC(c2cccc(C(F)(F)F)c2F)CC1 [drawing 17]
- Locomotor activity (drug-naive rats; 11 μmol/kg): 10587 ± 1027 counts/60 min
- Locomotor activity (drug-naive rats; 33 μmol/kg): 6439 ± 418 counts/60 min
- Locomotor activity (drug-naive rats; 100 μmol/kg): 4866 ± 941 counts/60 min

SMILES: C[C@@H]1CN(CCCn2c3ccccc3c3ccccc32)C[C@H](C)N1 [BW234U]
- outcome of clinical studies in schizophrenic patients (schizophrenic patients): failed

SMILES: CCCN1CCC(c2cccc(OC(F)(F)F)c2F)CC1 (as salt: hydrochloric acid salt) [Example 2, 4-[2-fluoro-3-(trifluoromethoxy)phenyl]-1-propyl-piperidine]
- melting point: 221 to 222 °C

SMILES: CCCN1CCC(c2cccc(F)c2F)CC1 [drawing 19]
- Locomotor activity (drug-naive rats; 11 μmol/kg): 8894 ± 1039 counts/60 min
- Locomotor activity (drug-naive rats; 33 μmol/kg): 9958 ± 1835 counts/60 min
- Locomotor activity (drug-naive rats; 100 μmol/kg): 8154 ± 1388 counts/60 min

SMILES: CCCN1CCC(c2cccc(F)c2F)CC1 [drawing 29]
- Locomotor activity, MK + example (MK-801 pre-treated rats): 19826 ± 6949 (P = 0.09) counts/30 min

SMILES: CCN1CCC(c2cccc(C(F)(F)F)c2F)CC1 [Example 3, 4-[2-fluoro-3-(trifluoromethyl)phenyl]-1-ethylpiperidine]
- levels of dopamine in the cortex [1]: elevate
- levels of norepinephrine in the cortex [1]: elevate
- 5-HT in the cortex [1]: 5-HT increase in the cortex
